Test results as given in US8530455B2 (University of Medicine and Dentistry of New Jersey, priority 2009, dated 2013).

Assays:
[1] = system: red blood cells in anticoagulated human blood; test: Erythrocyte Sedimentation Rate (ESR) in vitro; type: cell-based; details: for ESR value: n=13
From the text: When anticoagulated blood is allowed to remain undisturbed in a long thin tube, the erythrocytes (red blood cells) begin to settle. The rate these cells settle may be a biomarker of the immune system status of the donor's blood. Many chronic diseases and those which create increased morbidity and mortality show increases (larger distance of settling) in ESR than age-matched healthy individuals. The ESR can also monitor the effects of therapeutics or procedures on the patient.
The ESR is the distance red blood cells settle in anticoagulated blood in one hour (mm/hr). These test results are elevated in many diseases that affect the immune system (infections, arthritis, cancer, heart diseases).

[2] = system: citrated whole blood; test: Glucose-accelerated clotting time (Diagnostica Stago ST4 and Sonoclot); type: cell-based, human; details: for Glucose-accelerated clotting time: after 24 hours
Experimental: Citrated whole blood samples were obtained from the University Hospital's clinical laboratory with prior IRB approval. Samples were treated with different concentrations of glucose (6.0 mM, 9.0 mM, and 12.0 mM) to determine if a dose-response relationship existed between the glucose concentration and clotting time. Clotting times were then recorded using a Diagnostica Stago ST4 Coagulation Analyzer. […] The samples were incubated for 10 minutes prior to the addition of glucose (12.0 mM). After 24 hours, clotting times were recorded using a Diagnostica Stago ST4 and Sonoclot Coagulation Analyzer (FIG. 2). Results and Discussion

[3] = no refrigeration required; cited from earlier work
[4] = system: human citrated whole blood (CWB); test: Whole blood clotting time, Sonoclot Coagulation Analyzer; type: cell-based
Experimental: (§1) Human citrated whole blood (CWB) samples were gently inverted several times to ensure homogeneity and stored on ice to prevent protein denaturation. Ten microliters of physiologic saline was added to 490 μl of CWB (control), gently mixed, and incubated at 37° C. for 10 minutes. Coagulation was initiated by transferring 300 μl of blood sample to a cuvette containing 32 μl of 0.1 M CaCl2. After gently mixing the sample and ensuring no air bubble formations in the cuvette, the whole blood clotting times were recorded on an Amelung KC4A Micro Coagulation Analyzer (Sigma Diagnostics, St. Louis, Mo., USA), a device that uses the relative displacement of a magnetic bead due to fibrin formation to determine the clotting time. In addition, the Sonoclot Coagulation Analyzer (Sienco, Wheat Ridge, Colo., USA), a miniviscometer that is sensitive to fibrin polymer formation and fibrinolysis, was also employed to determine the whole blood clotting time. Both clinical instruments are FDA approved and used to evaluate blood coagulation processes at 37° C.
(§2) Clotting time values obtained within each study were evaluated by repeated measures analysis of variance (ANOVA) followed by Tukey-Kramer multiple comparison tests. All statistical analyses were assessed using two-sided paired Student t tests and significance was defined as p<0.05.
In the previous experiments, the whole blood clotting times were measured using the Amelung KC4A Micro, an instrument approved by the FDA to measure blood coagulation processes. Another FDA approved instrument used to measure blood coagulation and fibrinolysis is the Sonoclot Coagulation Analyzer.

[5] = system: human citrated whole blood (CWB); test: Whole blood clotting time after recalcification (Amelung KC4A Micro, or instrument not named); type: cell-based
Experimental: Clotting time of whole blood enables the contribution of both the cellular elements (leukocytes, red blood cells, platelets) and plasma (the liquid sustaining the cellular components) to be evaluated. The citrate anticoagulated sample is brought to 37° (body temperature) and calcium ion is added to initiate the coagulation cascade. Many instruments are available to determine the time between calcium addition and the formation of the blood clot (clotting time). The time for this complex phenomenon to occur can be shorter than normal (hypercoagulable), within the normal range, and longer than normal (hypocoagulable state). Some disease states are characterized by hypercoagulable clotting states and include coronary artery disease, some cancer, diabetes, multiple sclerosis, stroke etc. The hypocoagulable states include hemophilia, and patients receiving anticoagulant therapies.
as §1, §2

[6] = system: plasma; test: GDL dose response on plasma clotting time; type: biochemical; details: GDL dose response curve in plasma

Molecule: O=C1O[C@H](CO)[C@@H](O)[C@H](O)[C@H]1O [GDL, glucono-delta-lactone]
- ESR value ([1]; 0.1 mg/ml GDL, control 20±13): 18±14 mm/hr
- ESR value ([1]; 3.0 mg/ml GDL): 16±12 mm/hr
- ESR value ([1]; 6.0 mg/ml GDL): 15±12 mm/hr
- ESR ([1]; GDL 1 mg/ml alone): 9.6 mm
- Methylcellulose (MC)-accelerated ESR ([1]; MC 0.1% plus GDL 1 mg/ml, N=8, p<0.05): 34.6 mm
- ESR ([1]; MC + GDL (MC 0.1 mg/ml, GDL 1 mg/ml)): 30.1 mm
- effect of GDL on clotting time in the presence of excess glucose (FIG. 2) ([2]; GDL 3 mg/ml and 4 mg/ml, glucose 12.0 mM): prolonging clotting time even in the presence of excess glucose
- Glucose-accelerated clotting time ([2]; glucose (12.0 mM) plus GDL 3 mg/ml): 243 ± 70 s
- Glucose-accelerated clotting time ([2]; glucose (12.0 mM) plus GDL 4 mg/ml): 334 ± 107 s
- stability at room temperature [3]: not susceptible to degradation at room temperatures
- Mean Clotting Times ([4]; 11.8 mg GDL per mL CWB, n=16, control 262.63 ± 49.67): 631.75 ± 74.55 s
- Mean Clotting Times ([4]; 0.2 Unit LMWH (dalteparin sodium) plus 11.8 mg GDL per mL CWB, n=16): 844.94 ± 77.99 s
- Mean Clotting Times ([4]; 0.2 Unit UFH plus 11.8 mg GDL per mL CWB, n=16): 852.00 ± 80.72 s
- Mean Clotting Times ([5]; 2 μg GDL per mL CWB, n=8, control 264.38 ± 24.17): 271.13 ± 24.83 s
- mean clotting time ([5]; 2.90 μg GDL/mL CWB, n=4, saline 254.08±27.37): 246.55±28.32
- mean clotting time ([5]; 23.00 μg GDL/mL CWB, n=4): 307.90±16.82
- mean clotting time ([5]; 184.00 μg GDL/mL CWB, n=4): 387.33±52.36
- mean clotting time ([5]; 1.48 mg GDL/mL CWB, n=4): 444.55±92.01
- Mean Clotting Times ([5]; 11.8 mg GDL per mL CWB, n=16, control 252.25 ± 25.05): 618.31 ± 71.81 s
- mean clotting time ([5]; 11.80 mg GDL/mL CWB, n=4): 687.37±51.23
- Mean Clotting Times ([5]; 0.2% TF plus 11.8 mg GDL per mL CWB, n=16): 418.44 ± 80.46 s
- Mean Clotting Times ([5]; 0.2 Unit LMWH (dalteparin sodium) plus 2 μg GDL per mL CWB, n=8): 456.15 ± 47.45 s
- Mean Clotting Times ([5]; 0.2 Unit UFH plus 2 μg GDL per mL CWB, n=8): 572.51 ± 45.94 s
- Mean Clotting Times ([5]; 0.3 Unit LMWH (enoxaparin sodium) plus 2.9 μg GDL per mL CWB, n=4): 240.73 ± 29.58 s
- Mean Clotting Times ([5]; 0.3 Unit LMWH (enoxaparin sodium) plus 10 μg GDL per mL CWB, n=4): 294.50 ± 46.16 s
- Mean Clotting Times ([5]; 0.3 Unit LMWH (enoxaparin sodium) plus 23 μg GDL per mL CWB, n=4): 336.28 ± 51.79 s
- Mean Clotting Times ([5]; 0.3 Unit LMWH (enoxaparin sodium) plus 184 μg GDL per mL CWB, n=4): 381.23 ± 61.83 s
- Mean Clotting Times ([5]; 0.3 Unit LMWH (enoxaparin sodium) plus 1.48 mg GDL per mL CWB, n=4): 442.45 ± 63.38 s
- Mean Clotting Times ([5]; 0.3 Unit LMWH (enoxaparin sodium) plus 11.8 mg GDL per mL CWB, n=4): 542.88 ± 54.17 s
- Mean Clotting Times ([5]; 0.3 Unit UFH plus 2.9 μg GDL per mL CWB, n=5): 415.10 ± 101.63 s
- Mean Clotting Times ([5]; 0.3 Unit UFH plus 10 μg GDL per mL CWB, n=5): 498.94 ± 81.24 s
- Mean Clotting Times ([5]; 0.3 Unit UFH plus 23 μg GDL per mL CWB, n=5): 675.34 ± 129.28 s
- Mean Clotting Times ([5]; 0.3 Unit UFH plus 184 μg GDL per mL CWB, n=5): 825.96 ± 160.74 s
- Mean Clotting Times ([5]; 0.3 Unit UFH plus 1.48 mg GDL per mL CWB, n=5): 926.44 ± 192.03 s
- Mean Clotting Times ([5]; 0.3 Unit UFH plus 11.8 mg GDL per mL CWB, n=5): 1197.89 ± 114.32 s
- mean clotting time ([5]; CWB + GDL, n=9 (GDL 3 mg/ml)): 270 s
- mean clotting time ([5]; CWB + TF + GDL, n=9 (GDL 3 mg/ml)): 134 s
- change of whole blood clotting time over GDL concentration range ([5]; GDL 0.016 mM-66.24 mM): increased about three fold
- clotting time versus control ([5]; GDL 3 mg/ml incubated in blood with bacterial endotoxin): significantly (p≦0.05) increase the clotting time
- mean clotting time ([5]; GDL 4 mg/ml, after four days in the refrigerator (4°), control 177±17): 342 ± 32 s
- mean clotting time ([5]; GDL 4 mg/ml, day 1, n=10, control 250±16): 432 ± 16 s
- clotting time ([5]; Study III: 60 ng/ml histamine, 3 mg/ml GDL, n=8): 305 ± 30 s
- clotting time ([5]; Study III: 60 ng/ml histamine, 4 mg/ml GDL, n=8): 325 ± 53 s
- clotting time ([5]; Study IV: 1 μg/ml histamine added first, 1 mg/ml GDL, n=8): 297 ± 113 s
- clotting time ([5]; Study IV: 1 μg/ml histamine added first, 2 mg/ml GDL, n=8): 304 ± 121 s
- clotting time ([5]; blood containing protease 35 μg/ml plus GDL 4 mg/ml): 154 ± 55 s
- clotting time ([5]; blood exposed to tissue factor plus GDL 3 mg/ml, TF alone 101): 134 s
- anticoagulant effect ([5]; concentrations greater than 184 μg GDL per mL of blood, n=4, p<0.05): potent anticoagulant
- clotting time ([5]; trypsin-treated blood plus GDL 6 mg/ml, n=4): 83 ± 19 s
- anticoagulant effect in plasma [6]: a similar anticoagulant effect was observed

Molecule: NCCc1c[nH]cn1 [histamine, reference compound]
- clotting time ([5]; Study III: 60 ng/ml histamine, 0 mg/ml GDL, n=8, control 264±38): 220 ± 39 s
- clotting time ([5]; Study IV: 1 μg/ml histamine, 0 mg/ml GDL, n=8, control 306±108): 253 ± 136 s
- clotting time ([5]; histamine 20 ng/ml, n=8, control 264±80): 257 ± 105 s
- clotting time ([5]; histamine 40 ng/ml, n=8): 240 ± 42 s
- clotting time ([5]; histamine 60 ng/ml, n=8): 235 ± 73 s
- clotting time ([5]; histamine 20 μg/ml, 10 minutes at 37°, n=9, control 300±72): 252 ± 61 s
- clotting time ([5]; histamine 40 μg/ml, 10 minutes at 37°, n=9): 230 ± 49 s
- clotting time ([5]; histamine 60 μg/ml, 10 minutes at 37°, n=9): 205 ± 71 s

Molecule: Protamine sulfate [PS, reference compound]
- Mean Clotting Times ([5]; 2 μg PS per mL CWB, n=8): 294.26 ± 22.92 s
- Mean Clotting Times ([5]; 0.2 Unit LMWH (dalteparin sodium) plus 2 μg PS per mL CWB, n=8): 433.96 ± 56.96 s
- Mean Clotting Times ([5]; 0.2 Unit UFH plus 2 μg PS per mL CWB, n=8): 464.71 ± 42.83 s

Molecule: trypsin [reference compound]
- clotting time ([5]; trypsin-treated blood, control 356±47): 49 ± 14 s

Molecule: unfractionated heparin sodium [UFH, reference compound]
- Mean Clotting Times ([4]; 0.2 Unit UFH per mL CWB, n=16): 677.25 ± 55.33 s
- Mean Clotting Times ([5]; 0.2 Unit UFH per mL CWB, n=8): 648.54 ± 55.31 s
- Mean Clotting Times ([5]; 0.3 Unit UFH per mL CWB, n=5, control 246.56 ± 36.06): 507.52 ± 85.26 s

B1: TF: Tissue Factor, the initiator of the extrinsic clotting cascade (protein, UniProt P13726 33-295, looked up)
Tissue factor: SGTTNTVAAYNLTWKSTNFKTILEWEPKPVNQVYTVQISTKSGDWKSKCFYTTDTECDLTDEIVKDVKQTYLARVFSYPAGNVESTGSAGEPLYENSPEFTPYLETNLGQPTIQSFEQVGTKVNVTVEDERTLVRRNNTFLSLRDVFGKDLIYTLYYWKSSSSGKKTAKTNTNEFLIDVDKGENYCFSVQAVIPSRTVNRKSTDSPVECMGQEKGEFREIFYIIGAVVFVVIILVIILAISLHKCRKAGVGQSWKENSPLNVS
- Mean Clotting Times ([5]; 0.2% TF, n=16): 100.13 ± 23.10 s
